In one test the test system is L1210. In words: Cytotoxicity against mouse L1210 cells. It is filed as functional, cell-based.
Another test concerns Micrococcus luteus. Description: Antibacterial activity against Micrococcus luteus. It counts as functional.
Another test has as its system KB. In words: Cytotoxicity against human KB cells. It is filed as functional, cell-based.

≈ marks a conversion by molar mass, not a printed value. Some results are limits rather than exact numbers.

With `COc1ccc(C[C@H](N)C(=O)NCCc2cc(Br)c(OCCCN(C)C)c(Br)c2)cc1Br` [SUBEREDAMINE A], the IC50 came to 8 µg/mL (≈ 12.6 µM) with L1210 and 9 µg/mL (≈ 14.1 µM) with KB. Further, it took 12.6 µg/mL (≈ 19.8 µM) to inhibit growth with Micrococcus luteus (MIC).
For `CN[C@@H](Cc1ccc(OC)c(Br)c1)C(=O)NCCc1cc(Br)c(OCCCN(C)C)c(Br)c1` [SUBEREDAMINE B], in that order: 8.6 µg/mL (≈ 13.2 µM), > 10 µg/mL and 12.6 µg/mL (≈ 19.4 µM).

(Values after ChEMBL document CHEMBL1155736, “Suberedamines A and B, new bromotyrosine alkaloids from a sponge Suberea species” (J Nat Prod, 2001).)
